Measurements from ChEMBL document CHEMBL1155301, “Optimization of the aminopyridopyrazinones class of PDE5 inhibitors: discovery of 3-[(trans-4-hydroxycyclohexyl)amino]-7-(6-methoxypyridin-3-yl)-1-(2-propoxyethyl)pyrido[3,4-b]pyrazin-2(1H)-one” (Bioorg Med Chem Lett, 2009).
“And” between values parts separate entries of the source, which are not always exact repeats. Equal values may be shown once. The source made the active and inactive calls. The rule behind the calls is not given here.

Key:
[1] = biological target: Rod cGMP-specific 3',5'-cyclic phosphodiesterase subunit alpha (Homo sapiens, UniProt P16499); assay: Inhibition of PDE6
Chain of Rod cGMP-specific 3',5'-cyclic phosphodiesterase subunit alpha (P16499 whole entry): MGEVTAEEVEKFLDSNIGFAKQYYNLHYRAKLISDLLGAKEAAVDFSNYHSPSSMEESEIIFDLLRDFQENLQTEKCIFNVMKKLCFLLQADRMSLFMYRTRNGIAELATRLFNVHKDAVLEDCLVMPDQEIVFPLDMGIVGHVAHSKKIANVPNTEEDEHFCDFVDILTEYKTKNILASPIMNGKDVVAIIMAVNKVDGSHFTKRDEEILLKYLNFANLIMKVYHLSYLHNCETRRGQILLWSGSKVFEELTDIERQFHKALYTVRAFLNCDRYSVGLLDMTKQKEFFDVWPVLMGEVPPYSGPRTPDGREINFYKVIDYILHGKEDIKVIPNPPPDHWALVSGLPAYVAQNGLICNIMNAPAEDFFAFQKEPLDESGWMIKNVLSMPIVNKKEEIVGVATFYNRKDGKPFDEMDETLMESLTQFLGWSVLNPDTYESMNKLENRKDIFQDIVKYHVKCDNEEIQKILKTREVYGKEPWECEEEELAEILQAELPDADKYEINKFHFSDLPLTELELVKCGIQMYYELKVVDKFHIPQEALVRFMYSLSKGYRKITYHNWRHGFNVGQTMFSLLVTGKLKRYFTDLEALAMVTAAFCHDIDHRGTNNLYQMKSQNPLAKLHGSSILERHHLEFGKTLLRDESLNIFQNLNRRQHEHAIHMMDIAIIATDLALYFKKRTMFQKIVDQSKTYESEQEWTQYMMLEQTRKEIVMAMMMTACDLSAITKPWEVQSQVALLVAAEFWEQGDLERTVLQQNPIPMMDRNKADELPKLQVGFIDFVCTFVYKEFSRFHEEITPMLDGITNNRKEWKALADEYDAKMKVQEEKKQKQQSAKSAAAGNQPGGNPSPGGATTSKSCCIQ

Rattus norvegicus [2] = assay: Antihypertensive activity against telemeterized rat at 10 mg/kg, po; format: functional, organism-based; set-up: dose 10 mg/kg
[3] = Clearance in rat; format: ADME, organism-based; settings: in vivo
[4] = Half life in rat; format: ADME, organism-based; settings: in vivo
[5] = biological target: Dual 3',5'-cyclic-AMP and -GMP phosphodiesterase 11A (Homo sapiens, UniProt Q9HCR9); assay: Inhibition of PDE11
[6] = biological target: Dual specificity calcium/calmodulin-dependent 3',5'-cyclic nucleotide phosphodiesterase 1A (Homo sapiens, UniProt P54750); assay: Inhibition of PDE1A
Chain of Dual specificity calcium/calmodulin-dependent 3',5'-cyclic nucleotide phosphodiesterase 1A (P54750 whole entry): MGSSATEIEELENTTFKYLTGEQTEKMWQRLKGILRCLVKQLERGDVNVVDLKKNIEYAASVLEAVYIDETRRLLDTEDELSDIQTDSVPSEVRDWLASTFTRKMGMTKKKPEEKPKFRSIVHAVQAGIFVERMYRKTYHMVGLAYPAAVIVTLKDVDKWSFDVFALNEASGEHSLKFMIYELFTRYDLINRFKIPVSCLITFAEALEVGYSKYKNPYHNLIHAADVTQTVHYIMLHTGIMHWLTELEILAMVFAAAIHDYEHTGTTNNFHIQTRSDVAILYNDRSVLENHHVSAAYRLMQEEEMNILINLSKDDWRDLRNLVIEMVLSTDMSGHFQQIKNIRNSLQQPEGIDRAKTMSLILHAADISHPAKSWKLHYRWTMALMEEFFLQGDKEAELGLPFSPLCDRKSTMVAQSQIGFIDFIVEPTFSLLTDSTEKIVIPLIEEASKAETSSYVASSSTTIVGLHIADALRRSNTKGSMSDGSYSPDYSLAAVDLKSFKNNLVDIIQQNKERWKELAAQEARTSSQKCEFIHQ

[7] = biological target: Dual specificity calcium/calmodulin-dependent 3',5'-cyclic nucleotide phosphodiesterase 1B (Homo sapiens, UniProt Q01064); assay: Inhibition of PDE1B
[8] = biological target: Dual specificity calcium/calmodulin-dependent 3',5'-cyclic nucleotide phosphodiesterase 1C (Homo sapiens, UniProt Q14123); assay: Inhibition of PDE1C
[9] = biological target: cGMP-dependent 3',5'-cyclic phosphodiesterase (Homo sapiens, UniProt O00408); assay: Inhibition of PDE2
Chain of cGMP-dependent 3',5'-cyclic phosphodiesterase (O00408 whole entry): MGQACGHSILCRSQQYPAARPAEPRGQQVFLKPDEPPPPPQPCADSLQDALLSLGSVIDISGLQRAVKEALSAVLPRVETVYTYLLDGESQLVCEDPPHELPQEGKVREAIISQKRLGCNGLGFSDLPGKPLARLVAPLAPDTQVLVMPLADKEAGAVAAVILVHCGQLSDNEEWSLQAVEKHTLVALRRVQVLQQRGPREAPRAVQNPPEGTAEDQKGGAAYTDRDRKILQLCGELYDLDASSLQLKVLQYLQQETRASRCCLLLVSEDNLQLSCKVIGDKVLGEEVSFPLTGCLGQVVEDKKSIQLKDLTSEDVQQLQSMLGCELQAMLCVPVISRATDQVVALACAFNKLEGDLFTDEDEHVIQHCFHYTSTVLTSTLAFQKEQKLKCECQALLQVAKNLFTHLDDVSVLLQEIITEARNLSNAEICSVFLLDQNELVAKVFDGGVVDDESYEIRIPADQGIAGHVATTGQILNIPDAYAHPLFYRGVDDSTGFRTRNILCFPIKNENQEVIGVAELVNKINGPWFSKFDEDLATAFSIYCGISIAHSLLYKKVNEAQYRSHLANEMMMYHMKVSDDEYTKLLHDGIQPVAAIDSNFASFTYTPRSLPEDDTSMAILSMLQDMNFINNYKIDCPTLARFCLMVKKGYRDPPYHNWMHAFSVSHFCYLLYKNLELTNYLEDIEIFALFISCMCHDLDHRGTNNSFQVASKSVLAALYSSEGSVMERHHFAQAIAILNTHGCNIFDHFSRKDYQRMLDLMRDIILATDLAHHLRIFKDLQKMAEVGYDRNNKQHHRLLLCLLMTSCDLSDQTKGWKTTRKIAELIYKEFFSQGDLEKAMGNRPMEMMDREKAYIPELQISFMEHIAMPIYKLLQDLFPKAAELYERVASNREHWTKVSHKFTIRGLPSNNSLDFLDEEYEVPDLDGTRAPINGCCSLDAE

[10] = biological target: cGMP-inhibited 3',5'-cyclic phosphodiesterase 3A (Homo sapiens, UniProt Q14432); assay: Inhibition of PDE3A
[11] = biological target: cGMP-inhibited 3',5'-cyclic phosphodiesterase 3B (Homo sapiens, UniProt Q13370); assay: Inhibition of PDE3B
[12] = biological target: 3',5'-cyclic-AMP phosphodiesterase 4A (Homo sapiens, UniProt P27815); assay: Inhibition of PDE4A
[13] = biological target: 3',5'-cyclic-AMP phosphodiesterase 4B (Homo sapiens, UniProt Q07343); assay: Inhibition of PDE4B
Chain of 3',5'-cyclic-AMP phosphodiesterase 4B (Q07343 whole entry): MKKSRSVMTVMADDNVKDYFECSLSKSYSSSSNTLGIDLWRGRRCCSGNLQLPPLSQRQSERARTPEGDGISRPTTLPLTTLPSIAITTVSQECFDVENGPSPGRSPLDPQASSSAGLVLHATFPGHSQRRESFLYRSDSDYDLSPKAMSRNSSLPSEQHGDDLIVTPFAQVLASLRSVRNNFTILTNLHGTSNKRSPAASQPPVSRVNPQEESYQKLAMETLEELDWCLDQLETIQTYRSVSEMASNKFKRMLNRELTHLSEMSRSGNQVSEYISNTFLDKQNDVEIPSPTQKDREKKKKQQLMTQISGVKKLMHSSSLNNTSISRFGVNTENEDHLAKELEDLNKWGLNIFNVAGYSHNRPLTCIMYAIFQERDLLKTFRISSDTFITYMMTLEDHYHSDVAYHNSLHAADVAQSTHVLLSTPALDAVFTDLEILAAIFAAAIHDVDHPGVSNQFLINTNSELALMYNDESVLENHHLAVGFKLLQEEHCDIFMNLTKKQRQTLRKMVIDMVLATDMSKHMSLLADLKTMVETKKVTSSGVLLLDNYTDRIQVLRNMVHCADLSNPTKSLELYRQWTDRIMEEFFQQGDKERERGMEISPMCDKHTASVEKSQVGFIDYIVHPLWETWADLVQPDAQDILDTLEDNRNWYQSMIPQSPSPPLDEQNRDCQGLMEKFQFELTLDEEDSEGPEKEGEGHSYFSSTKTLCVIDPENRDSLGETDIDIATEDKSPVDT

[14] = biological target: 3',5'-cyclic-AMP phosphodiesterase 4C (Homo sapiens, UniProt Q08493); assay: Inhibition of PDE4C
[15] = biological target: High affinity 3',5'-cyclic-AMP phosphodiesterase 7A (Homo sapiens, UniProt Q13946); assay: Inhibition of PDE7A
Chain of High affinity 3',5'-cyclic-AMP phosphodiesterase 7A (Q13946 whole entry): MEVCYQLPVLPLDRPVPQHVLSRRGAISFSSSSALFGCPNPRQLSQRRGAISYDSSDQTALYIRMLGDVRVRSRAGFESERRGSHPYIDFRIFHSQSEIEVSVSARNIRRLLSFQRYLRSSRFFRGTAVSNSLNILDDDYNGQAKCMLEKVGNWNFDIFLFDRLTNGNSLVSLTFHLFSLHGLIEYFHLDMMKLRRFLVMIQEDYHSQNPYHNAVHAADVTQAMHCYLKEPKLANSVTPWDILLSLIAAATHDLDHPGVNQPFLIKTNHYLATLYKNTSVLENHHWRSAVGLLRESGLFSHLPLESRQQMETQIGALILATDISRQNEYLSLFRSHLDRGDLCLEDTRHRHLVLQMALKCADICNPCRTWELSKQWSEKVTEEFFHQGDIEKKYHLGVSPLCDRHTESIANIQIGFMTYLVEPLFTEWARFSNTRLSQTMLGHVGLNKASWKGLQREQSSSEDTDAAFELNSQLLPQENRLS

[16] = biological target: 3',5'-cyclic-AMP phosphodiesterase 7B (Homo sapiens, UniProt Q9NP56); assay: Inhibition of PDE7B
[17] = biological target: High affinity cAMP-specific and IBMX-insensitive 3',5'-cyclic phosphodiesterase 8A (Homo sapiens, UniProt O60658); assay: Inhibition of PDE8A
Chain of High affinity cAMP-specific and IBMX-insensitive 3',5'-cyclic phosphodiesterase 8A (O60658 whole entry): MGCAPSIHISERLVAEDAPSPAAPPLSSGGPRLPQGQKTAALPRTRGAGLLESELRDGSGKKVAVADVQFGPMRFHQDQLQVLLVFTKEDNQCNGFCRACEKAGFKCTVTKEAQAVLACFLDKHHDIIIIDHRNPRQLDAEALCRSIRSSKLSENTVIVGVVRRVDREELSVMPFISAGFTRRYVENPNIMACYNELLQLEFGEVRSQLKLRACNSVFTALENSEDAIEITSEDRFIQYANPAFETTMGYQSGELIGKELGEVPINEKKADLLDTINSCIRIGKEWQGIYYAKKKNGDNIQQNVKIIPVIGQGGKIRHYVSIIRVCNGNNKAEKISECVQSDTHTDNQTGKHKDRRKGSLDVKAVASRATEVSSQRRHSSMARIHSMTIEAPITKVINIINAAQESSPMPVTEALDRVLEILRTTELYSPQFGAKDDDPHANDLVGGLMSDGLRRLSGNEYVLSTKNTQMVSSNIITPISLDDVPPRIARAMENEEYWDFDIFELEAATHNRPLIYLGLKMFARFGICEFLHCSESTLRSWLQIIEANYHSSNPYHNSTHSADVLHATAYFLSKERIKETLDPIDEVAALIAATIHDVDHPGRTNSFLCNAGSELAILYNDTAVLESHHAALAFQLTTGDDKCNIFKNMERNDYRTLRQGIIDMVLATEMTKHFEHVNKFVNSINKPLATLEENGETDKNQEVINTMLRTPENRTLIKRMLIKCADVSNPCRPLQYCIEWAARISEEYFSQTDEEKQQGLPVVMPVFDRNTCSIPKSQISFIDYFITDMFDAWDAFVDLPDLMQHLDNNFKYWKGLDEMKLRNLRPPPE

[18] = biological target: High affinity cAMP-specific and IBMX-insensitive 3',5'-cyclic phosphodiesterase 8B (Homo sapiens, UniProt O95263); assay: Inhibition of PDE8B
[19] = biological target: High affinity cGMP-specific 3',5'-cyclic phosphodiesterase 9A (Homo sapiens, UniProt O76083); assay: Inhibition of PDE9
Chain of High affinity cGMP-specific 3',5'-cyclic phosphodiesterase 9A (O76083 whole entry): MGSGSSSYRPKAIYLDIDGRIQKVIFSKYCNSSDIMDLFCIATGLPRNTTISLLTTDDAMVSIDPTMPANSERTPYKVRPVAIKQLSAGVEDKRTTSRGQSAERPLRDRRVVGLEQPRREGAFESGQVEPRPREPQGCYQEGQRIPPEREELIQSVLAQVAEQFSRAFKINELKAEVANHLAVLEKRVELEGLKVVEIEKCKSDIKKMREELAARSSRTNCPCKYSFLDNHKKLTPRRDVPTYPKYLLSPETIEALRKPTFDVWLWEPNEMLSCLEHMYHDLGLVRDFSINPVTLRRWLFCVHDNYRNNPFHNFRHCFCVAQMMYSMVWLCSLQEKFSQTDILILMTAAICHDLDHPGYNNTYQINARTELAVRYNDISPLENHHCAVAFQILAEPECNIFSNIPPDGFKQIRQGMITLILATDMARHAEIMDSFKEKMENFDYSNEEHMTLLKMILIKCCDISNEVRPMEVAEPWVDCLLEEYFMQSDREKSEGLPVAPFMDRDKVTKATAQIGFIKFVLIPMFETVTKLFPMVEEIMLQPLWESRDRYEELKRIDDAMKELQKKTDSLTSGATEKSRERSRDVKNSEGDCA

[20] = biological target: cGMP-specific 3',5'-cyclic phosphodiesterase (Homo sapiens, UniProt O76074); assay: Inhibition of PDE5
[21] = Clearance in rat at 2 mg/kg, po and 2 mg/kg, iv; format: ADME, organism-based; settings: in vivo
[22] = Oral bioavailability in rat at 2 mg/kg; format: ADME, organism-based; settings: in vivo
[23] = Volume of distribution in rat at 2 mg/kg, iv and 2 mg/kg, po; format: ADME, organism-based; settings: in vivo
[24] = Volume of distribution in dog at 2 mg/kg, iv and 2 mg/kg, po; format: ADME, organism-based, Canis lupus familiaris; settings: in vivo
[25] = Clearance in dog at 2 mg/kg, po and 2 mg/kg, iv; format: ADME, organism-based, Canis lupus familiaris; settings: in vivo
[26] = Half life in rat at 2 mg/kg, po and 2 mg/kg, iv; format: ADME, organism-based; settings: in vivo
[27] = Half life in dog at 2 mg/kg, po and 2 mg/kg, iv; format: ADME, organism-based, Canis lupus familiaris; settings: in vivo
[28] = Oral bioavailability in dog at 2 mg/kg; format: ADME, organism-based, Canis lupus familiaris; settings: in vivo
Rattus norvegicus [29] = organism: Rattus norvegicus; assay: Unbound volume of distribution in rat; format: ADME, organism-based; settings: in vivo
Rattus norvegicus [30] = organism: Rattus norvegicus; assay: Unbound clearance in rat; format: ADME, organism-based; settings: in vivo
[31] = Permeability from apical to basolateral side in human Caco-2 cells; format: ADME, cell-based; settings: read-out: permeability
[32] = biological target: 3',5'-cyclic-AMP phosphodiesterase 4D (Homo sapiens, UniProt Q08499)

| IC50 [1] [nM] | IC50 [5] [nM] | IC50 [6] [nM] | IC50 [7] [nM] | IC50 [8] [nM] | IC50 [9] [nM] | IC50 [10] [nM] | IC50 [11] [nM] | IC50 [12] [nM] | IC50 [13] | IC50 [14] [nM] | IC50 [15] [nM] | IC50 [16] [nM] | IC50 [17] [nM] | IC50 [18] [nM] | IC50 [19] [nM] | Compound | Activity (Rattus norvegicus [2]) | further results |
| --- | --- | --- | --- | --- | --- | --- | --- | --- | --- | --- | --- | --- | --- | --- | --- | --- | --- | --- |
| 11.3 | 346 | > 2000 | > 2000 | > 2000 | > 2000 | > 2000 | > 2000 | > 2000 | > 2000 nM | > 2000 | > 2000 | > 2000 | > 2000 | > 2000 | > 2000 | CCCOCCn1c(=O)c(NCCN2CCOCC2)nc2cnc(-c3ccc(OC)nc3)cc21 | Active | clearance [3]: 33 mL/min/kg; half-life [4]: 0.8 h |
| 9.8 | 64.1 | > 2000 | > 2000 | > 2000 | > 2000 | > 2000 | > 2000 | > 2000 | > 2000 nM and 290 nM | > 2000 | > 2000 | > 2000 | > 2000 | > 2000 | > 2000 | CCCOCCn1c(=O)c(N[C@H]2CC[C@H](O)CC2)nc2cnc(-c3ccc(OC)nc3)cc21 | Active | IC50 [20]: 0.05 nM; clearance [21]: 5.5 mL/min/kg; bioavailability [22]: 50%; Vd [23]: 1.4 L/kg; Vd [24]: 3.7 L/kg; clearance [25]: 3.5 mL/min/kg; half-life [26]: 4.1 h; half-life [27]: 17.6 h; bioavailability [28]: 75%; Vdu (Rattus norvegicus [29]): 100 L/kg; CL free (Rattus norvegicus [30]): 400 mL/min/kg; Papp A→B [31]: 34 ×10⁻⁶ cm/s; IC50 [32]: 1210 nM |
